# Patent publication US20090030037A1, “Sustained Release Formulation and Dosing Schedules of Leukotriene Synthesis Inhibitor for Human Therapy” (deCODE Genetics ehf., priority 2005, published 2009)
# Read-outs that look alike come from different tables or passages of the source.
# What was measured:
# [1] = Study DG-031-204: steady state DG-031 plasma concentrations; format: in vivo, human; settings: for concentration at 0 h / concentration at 0.5 h / concentration at 1 h / concentration at 2 h / concentration at 4 h / concentration at 6 h: human, plasma, oral, 500 mg, read-out: Steady state DG-031 exposure, Geometric Mean; for concentration at 0 h: 0 hr post dose; for concentration at 0.5 h: 0.5 hr post dose; for concentration at 1 h: 1 hr post dose; for concentration at 2 h: 2 hr post dose; for concentration at 4 h: 4 hr post dose; for concentration at 6 h: 6 hr post dose
# Protocol: Blood samples were collected for determining DG-031 concentrations in a subset of patients (n=22). Samples were collected just prior to dosing and at 0.5, 1, 2, 4, and 6 hours following administration of DG-031 500 mg BID or TID.
# [2] = system: sICAM; assay: Study DG-031-201: ICAM (sICAM-1); format: in vivo, human; settings: [0%,6%], p=0.03
# Protocol: Patients who met the study eligibility criteria were enrolled and randomized into 3 different dose-level groups: (1) 64 patients on 250 mg/day therapy with DG-031 (250 mg q.d.), vs placebo; (2) 64 patients on 500 mg/day therapy with DG-031 (250 mg b.i.d.) vs placebo; and (3) 63 patients on 750 mg/day therapy with DG-031 (250 mg t.i.d.) vs placebo. […] All patients received 3 tablets per day. Treatment periods, 4 weeks in duration each, were separated by a 2-week washout period. The placebo tablets were identical in shape, color, form and taste to the active tablets except that they contained no active drug ingredients. Treatment with DG-031 or placebo was in addition to the subject's standard care, including all medications and treatment plan as prescribed by the subject's cardiologist prior to enrolment. A total of 191 subjects were enrolled, with 172 completing all 8 visits or 8 patients short of the target of 180 patients. […]
# All data were analyzed according to a pre-established statistical analysis plan (SAP) and by intention-to-treat (ITT). […] The difference between DG-031 and placebo treatment was the primary outcome, assessed separately for each of the biomarkers. […]
# [3] = asthma patients, cited from earlier work
smiles,measurement,setting,value
"O=C(O)[C@@H](c1ccc(OCc2ccc3ccccc3n2)cc1)C1CCCC1 [DG-031, (R)-(+)-alpha-cyclopentyl-4-(2-quinolinylmethoxy)-Benzeneacetic acid]",DG-031 concentrations observed,"[1]; 500 mg BID or TID, subset n=22",up to 20.3 μg/mL
same,Mean trough concentration,"[1]; 500 mg BID, steady state",4.3 µg/mL
same,Observed mean peak concentration,"[1]; 500 mg BID, steady state",8.8 µg/mL
same,Observed peak to trough fluctuation,"[1]; 12 hour period, BID dosing regimen",2-3 fold
same,concentration at 0 h,[1]; 500 mg BID,4300 ng/mL
same,concentration at 0.5 h,[1]; 500 mg BID,4700 ng/mL
same,concentration at 1 h,[1]; 500 mg BID,6100 ng/mL
same,concentration at 2 h,[1]; 500 mg BID,8600 ng/mL
same,concentration at 4 h,[1]; 500 mg BID,8800 ng/mL
same,concentration at 6 h,[1]; 500 mg BID,7000 ng/mL
same,concentration at 0 h,[1]; 500 mg TID,6900 ng/mL
same,concentration at 0.5 h,[1]; 500 mg TID,6800 ng/mL
same,concentration at 1 h,[1]; 500 mg TID,8500 ng/mL
same,concentration at 2 h,[1]; 500 mg TID,10100 ng/mL
same,concentration at 4 h,[1]; 500 mg TID,10000 ng/mL
same,concentration at 6 h,[1]; 500 mg TID,7400 ng/mL
same,Effect on serum sICAM-1,[2],reduced significantly
same,Safety and tolerability,"[3]; total daily dose 250-1000 mg, 14 days",safe and well tolerated
same,Safety and tolerability,"[3]; total daily doses 100-1000 mg, 14-42 days",safe and well tolerated
